In article PMC4761905, “A Novel Heterocyclic Compound CE-104 Enhances Spatial Working Memory in the Radial Arm Maze in Rats and Modulates the Dopaminergic System” (Frontiers in Behavioral Neuroscience, 2016):

Tests used:
[1] = molecular target: T1, norepinephrine transporter (NET) (Homo sapiens, UniProt P23975); experiment: [3H]MPP+ uptake inhibition in HEK293 cells stably expressing human NET; format: cell-based
T1 construct: gene SLC6A2

[2] = molecular target: T2, dopamine transporter (DAT) (Homo sapiens, UniProt Q01959); experiment: [3H]dopamine uptake inhibition in HEK293 cells stably expressing human DAT; format: cell-based
T2 construct: gene SLC6A3
T2 sequence (Q01959 whole entry): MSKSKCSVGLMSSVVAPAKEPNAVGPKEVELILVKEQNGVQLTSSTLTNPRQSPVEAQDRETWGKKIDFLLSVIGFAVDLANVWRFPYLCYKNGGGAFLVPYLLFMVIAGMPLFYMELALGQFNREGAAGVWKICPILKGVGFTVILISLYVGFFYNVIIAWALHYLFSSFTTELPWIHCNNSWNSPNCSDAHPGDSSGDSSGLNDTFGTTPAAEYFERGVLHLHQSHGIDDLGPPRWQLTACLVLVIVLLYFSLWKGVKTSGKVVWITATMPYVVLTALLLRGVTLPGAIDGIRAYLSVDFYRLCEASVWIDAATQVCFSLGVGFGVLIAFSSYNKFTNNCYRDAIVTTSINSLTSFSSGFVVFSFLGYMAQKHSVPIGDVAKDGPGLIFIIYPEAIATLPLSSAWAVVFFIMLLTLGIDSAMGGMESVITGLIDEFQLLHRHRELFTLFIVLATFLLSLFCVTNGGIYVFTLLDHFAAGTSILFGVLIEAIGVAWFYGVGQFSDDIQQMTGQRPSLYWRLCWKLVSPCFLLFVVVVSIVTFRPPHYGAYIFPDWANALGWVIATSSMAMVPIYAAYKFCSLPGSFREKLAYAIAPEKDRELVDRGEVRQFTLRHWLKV

T1 sequence (P23975 whole entry): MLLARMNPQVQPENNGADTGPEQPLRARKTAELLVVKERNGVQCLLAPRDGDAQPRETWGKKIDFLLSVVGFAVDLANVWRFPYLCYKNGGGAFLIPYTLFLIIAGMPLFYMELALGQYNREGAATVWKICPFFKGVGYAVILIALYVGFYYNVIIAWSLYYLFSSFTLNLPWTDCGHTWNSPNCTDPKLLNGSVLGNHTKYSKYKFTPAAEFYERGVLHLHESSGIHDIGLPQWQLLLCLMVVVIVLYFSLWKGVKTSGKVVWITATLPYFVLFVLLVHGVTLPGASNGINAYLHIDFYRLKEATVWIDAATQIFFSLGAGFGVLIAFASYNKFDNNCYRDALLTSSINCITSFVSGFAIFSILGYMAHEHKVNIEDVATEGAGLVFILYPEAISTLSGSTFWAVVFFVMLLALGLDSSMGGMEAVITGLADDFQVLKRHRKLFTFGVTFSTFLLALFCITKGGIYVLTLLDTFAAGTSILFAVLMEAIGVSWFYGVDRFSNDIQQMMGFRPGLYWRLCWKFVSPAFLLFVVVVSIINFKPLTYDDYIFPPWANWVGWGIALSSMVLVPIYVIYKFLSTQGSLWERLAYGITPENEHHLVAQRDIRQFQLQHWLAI

SMILES: Cc1csc(C[S+]([O-])C(c2ccccc2)c2ccccc2)n1 (racemic) [CE-104, 2-(benzhydrylsulfinylmethyl)-4-methylthiazole]
- IC50 [1]: 160 µM
- IC50 [2]: 27.9 µM
